A short description of the data set: gradient 5% acetonitrile 3 min, to 50% in 2 min, to 85% in 15 min, held 3 min, 100 µL/min. Conditions: column: Zorbax Extend-C18 2.1 x 50 mm; eluents: water / acetonitrile, 0.1% formic acid. The method, boiled down:
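The mobile phases were water and acetonitrile, each with 0.1% formic acid, pumped at 100 μL/min through a Zorbax Extend-C18 column (2.1 × 50 mm, 1.8 μm). Pure standards were injected as mixtures of ~100 molecules and detected by a quadrupole time-of-flight mass spectrometer in positive and negative ionization mode. Retention time came from computationally picked adduct peaks, each inspected by hand.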
Compound `CCOC(=O)c1noc2ncnc(NC3CCCc4ccccc43)c12` (stereo not drawn) showed an RP-LC retention time of 1120 s. Consider `Cc1nn(CC(=O)NC(C)c2ccc3c(c2)OCCO3)c(=O)c2c(C)n(-c3ccccc3)nc12` (stereo not drawn), for which the RP-LC retention time was 827 s. `CCNC(=O)c1nc(C(=O)NC(C)c2ccc(C)cc2)cs1` (stereo not drawn) returned an RP-LC retention time of 843 s. With `O=C(NC1CCCCC1)c1cn(-c2cc(-c3nc(C4CC4)no3)ccn2)cn1` the figure was 961 s. The compound `CS(=O)(=O)N1CCCN(C(=O)c2ccccc2F)CC1` came in with an RP-LC retention time of 651 s. Under `COc1ccc(-c2ccc3nc(N4CCC(C(=O)O)CC4)sc3n2)cc1` stands 825 s; under `CC(Oc1ccccc1)c1nc(-c2ccc3c(c2)ncn3CCC(=O)N2CCCC2)no1` (stereo not drawn), 751 s; under `Cc1nc(-c2csc(S(=O)(=O)N3CCCC(C(=O)Nc4cccc5c4CCCC5)C3)c2)no1` (stereo not drawn), 1110 s. Under `CCN(CC)CCCC(C)Nc1nc(C)cc(Nc2ccc3nc(C)cc(N)c3c2)n1` (stereo not drawn) stands 568 s; under `Cc1ccc2c(c1)N(S(C)(=O)=O)CCC(C(=O)NC(C)c1ccccc1)O2` (stereo not drawn), 900 s; under `CCOc1ccc(Br)cc1C(=O)N1CCNC(=O)C1CC(=O)OC1CCCCC1` (stereo not drawn), 876 s. Under `CCOC(=O)c1ccc(NC(=O)COc2cc(C)nc(N3CCN(c4ccccc4)CC3)n2)cc1` stands 864 s; under `N#Cc1ccc(C(=O)OCc2nc3ccccc3s2)cc1`, 936 s; under `COc1ccccc1C(=O)N1CCC(COc2ccc(C(=O)NC(C)C)cc2)CC1`, 817 s. Compound `Cc1ccc(-n2ncc3c(=O)n(Cc4nc(-c5ccccc5)no4)cnc32)cc1Cl` gave an RP-LC retention time of 1190 s. Under `O=C(O)c1ccccc1-c1c2ccc(=O)c(O)c-2oc2c(O)c(O)ccc12` stands 702 s; under `O=C(c1ccc(F)c(Cl)c1)N1CCc2nc[nH]c2C1`, 592 s. Turning to `NC(=O)[C@@H]1C[C@H](Oc2cccnc2)CN1C(=O)CCc1nc2ccccc2s1`, the RP-LC retention time amounted to 589 s. With `O=C(Cn1c(=O)c2cc(-c3cccs3)nn2c2ncccc21)Nc1ccc(F)cc1` the figure was 870 s.

For the compound `CC(=O)Nc1ccc(C2(C(=O)NCc3ccccc3Cl)CCC2)cc1`, the RP-LC retention time is 802 s. As to `Cc1nc2ccn(Cc3cccnc3)c(=O)c2cc1C(=O)N1CCOCC1`, the RP-LC retention time was determined as 552 s. With `CC(C)(C)c1ccc(C(=O)Nc2cnc(N3CCOCC3)nc2)cc1` the figure was 923 s.

`CC(=O)NC1(C(=O)O)CCCC1` showed an RP-LC retention time of 617 s.

`Cc1nc2ccn(Cc3cccs3)c(=O)c2cc1C(=O)NCC1CCCO1` (stereo not drawn) displayed an RP-LC retention time of 670 s. With `Cn1nccc1-c1csc(S(=O)(=O)NC2CCCCC2)c1` the figure was 877 s. Under `COc1ccc(N2CCN(C(=O)C3CCCN(c4ncnc5c4nc4n5CCCCC4)C3)CC2)cc1` (stereo not drawn) stands 738 s; under `O=C(Cn1ccc2ccc(N3CCOCC3)nc21)NCc1ccc(F)cc1F`, 870 s; under `COc1ccc(Cl)cc1NC(=O)N(C)CCc1noc(COc2ccccc2F)n1`, 979 s.

As for `CCN1c2ccccc2C(=O)NC12CCN(C(=O)NC1CCCCC1)CC2`, the RP-LC retention time came out at 771 s. With `CCCOc1nc2ccccc2nc1N1CCCC(C(=O)NC(C)c2ccccc2)C1` (stereo not drawn) the figure was 1230 s. Regarding `CC(C)c1ccc(-n2c3c(cc(C(=O)N4CCOCC4)c2=O)C(=O)CCC3)cc1`, the RP-LC retention time is 722 s. Under `Cc1nn(-c2ccc(-c3ccccc3)nn2)c(C)c1S(=O)(=O)N1CCN(C2CCCCC2)CC1` stands 733 s; under `Cc1nc(C2CN(S(=O)(=O)c3ccccc3F)CC23CCOCC3)no1` (stereo not drawn), 812 s.
